The text below walks through data of US7560466B2, “Methods of treating or preventing autoimmune diseases with 2,4-pyrimidinediamine compounds” (Rigel Pharmaceuticals, Inc., priority 2003, dated 2009).

Where two headings read alike, the source gives them in different places. Where only a bound is given, the exact number is not on record here.

The target in one series is T1, Syk kinase (Homo sapiens, UniProt P43405).
T1 construct: purchased Upstate, Lake Placid N.Y
Briefly: Syk kinase biochemical fluorescence polarization assay. To be noted: isolated Syk kinase, read-out: fp_syk, 11pt. The procedure:
Many of the 2,4-pyrimidinediamine compounds were tested for the ability to inhibit Syk kinase catalyzed phosphorylation of a peptide substrate in a biochemical fluorescenced polarization assay with isolated Syk kinase. In this experiment, Compounds were diluted to 1% DMSO in kinase buffer (20 mM HEPES, pH 7.4, 5 mM MgCl2, 2 mM MnCl2, 1 mM DTT, 0.1 mg/mL acetylated Bovine Gamma Globulin). Compound in 1% DMSO (0.2% DMSO final) was mixed with ATP/substrate solution at room temperature. Syk kinase (Upstate, Lake Placid N.Y.) was added to a final reaction volume of 20 uL, and the reaction was incubated for 30 minutes at room temperature. […] EDTA (10 mM final)/anti-phosphotyrosine antibody (1× final)/fluorescent phosphopeptide tracer (0.5× final) was added in FP Dilution Buffer to stop the reaction for a total volume of 40 uL according to manufacturer's instructions (PanVera Corporation) The plate was incubated for 30 minutes in the dark at room temperature. Plates were read on a Polarion fluorescence polarization plate reader (Tecan). Data were converted to amount of phosphopeptide present using a calibration curve generated by competition with the phosphopeptide competitor provided in the Tyrosine Kinase Assay Kit, Green (PanVera Corporation).
In Tabe 1, all reported values are IC50s (in μM).
(In general: In fluorescence polarisation assays a small probe gives low polarisation when free and higher when bound to something large.)

A short description of series [1]: Plasma concentration in RPA reaction study (satellite / exposure). In kind it is in vivo, mouse. The note with it: for concentration at 5 h: pretreatment 1 hr; for Exposure = Pretreatment Time + 4 hours Plasma Concentration ± SEM / concentration at 4.5 h: pretreatment 0.5 hrs. The procedure:
Pretreatment time, in which the test compounds are administered prior to Ab/Ag challenge, depends on the pharmacokinetic (PK) properties of each individual compound. Four hours after induction of Arthus reaction, mice are euthanized, and tissues are harvested for assessment of edema.
All compounds tested were administered by the oral route.

Series [2] has as its system cultured human mast cells (CHMC), IgE-induced degranulation. In words: CHMC low cell density IgE activation: tryptase assay. In kind it is cell-based. To be noted: Homo sapiens, Mast cell, low cell density CHMC. An outline of the steps: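 Cord-blood CD34+-derived mucosal mast cells (SCF/IL-6 medium), 1000–1500 cells/well, preincubated with compound 1 h at 37°C, then anti-IgE stimulated 30 min at 37°C.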

Series [3] relates to cultured human mast cells (CHMC), ionomycin-induced degranulation. In words: CHMC low cell density ionomycin activation: tryptase assay. The note with it: Homo sapiens, Mast cell, low cell density CHMC, ionomycin activation (2 μM final), 3pt, read-out: LD Tryptase, CHMC, Iono, 3pt. In kind it is cell-based.
The mark [4] stands for this setting: C57BL/6, mouse, plasma, 5 mg/kg oral, read-out: Exposure = Pretreatment Time + 4 hours Plasma Concentration ± SEM.

Turning to `CC1(C)Oc2ccc(Nc3nc(Nc4ccc5[nH]c(C(F)(F)F)nc5c4)ncc3F)nc2NC1=O` [Compound 846, N4-(2,2-Dimethyl-3-oxo-4H-5-pyrid[1,4]oxazin-6-yl)-5-fluoro-N2-(2-trifluoromethyl-1H-benzimidazol-5-yl)-2,4-pyrimidinediamine], the IC50 on Syk kinase (11pt) was under 10 µM.

`Cc1nc2cc(Nc3ncc(F)c(Nc4ccc5c(c4)NC(=O)[C@H](C)O5)n3)ccc2n1C` [Compound 897]: the IC50 on Syk kinase (11pt) is under 10 µM.

On to `Cc1nc2cc(Nc3ncc(F)c(Nc4ccc5c(n4)NC(=O)C(C)(C)O5)n3)ccc2n1C` [Compound 898, N2-(1,2-Dimethylbenzimidazol-5-yl)-N4-(2,2-dimethyl-3-oxo-4H-5-pyrid[1,4]oxazin-6-yl)-5-Fluoro-2,4-pyrimidinediamine], for which the IC50 on Syk kinase (11pt) is under 10 µM.

With `Cc1nc2cc(Nc3ncc(F)c(Nc4ccc5c(c4)NC(=O)C(C)(C)O5)n3)ccc2n1CCO` [Compound 901], the IC50 on Syk kinase (11pt) is under 10 µM.

For the compound `Cc1nc2cc(Nc3ncc(F)c(Nc4ccc5c(c4)NC(=O)[C@H](C)O5)n3)ccc2n1CCO` [Compound 902], the IC50 on Syk kinase (11pt) is under 10 µM.

For the compound `Cc1nc2cc(Nc3ncc(F)c(Nc4ccc5c(n4)NC(=O)C(C)(C)O5)n3)ccc2n1CCO` [Compound 903, N4-(2,2-Dimethyl-3-oxo-4H-5-pyrid[1,4]oxazin-6-yl)-5-fluoro-N2-[1-(2-hydroxyethyl)-2-methylbenzimidazol-5-yl)-2,4-pyrimidinediamine], at Syk kinase (11pt), the IC50 is under 10 µM.

Regarding `Cc1nc2ccc(Nc3ncc(F)c(Nc4ccc5c(c4)NC(=O)C(C)S5(=O)=O)n3)cc2[nH]1` (stereo not shown) [Compound 909], the IC50 at Syk kinase (11pt) is under 10 µM.

For `CC1C(=O)Nc2cc(Nc3nc(Nc4ccc5[nH]c(C(F)(F)F)nc5c4)ncc3F)ccc2S1(=O)=O` (stereo not shown) [Compound 910, 5-Fluoro-N4-(2-methyl-1,1,3-trioxo-2H,4H-benzo[1,4]thiazin-6-yl)-N2-(2-trifluoromethyl-1H-benzimidazol-5-yl)-2,4-pyrimidinediamine], on Syk kinase (11pt), the IC50 was under 10 µM.

Turning to `Cn1c(N2CCOCC2)nc2cc(Nc3ncc(F)c(Nc4ccc5c(c4)NC(=O)C(C)(C)O5)n3)ccc21` [Compound 944, N4-(2,2-Dimethyl-3-oxo-4H-benz[1,4]oxazin-6-yl)-5-fluoro-N2-[1-methyl-2-(4-morpholino)benzimidazol-5-yl]-2,4-pyrimidinediamine], the concentration at 5 h in series [1] (C57BL/6, mouse, plasma, 2 mg/kg oral, read-out: Exposure = Pretreatment Time + 4 hours Plasma Concentration ± SEM) was 4.3 ± 4.2 ng/mL; in series [1] (setting [4]), 3.5 ± 5.3 ng/mL; in series [1] (C57BL/6, mouse, plasma, 15 mg/kg oral, read-out: Exposure = Pretreatment Time + 4 hours Plasma Concentration ± SEM), 29.7 ± 25.9 ng/mL. Besides, the IC50 on Syk kinase (11pt) is under 10 µM.

For the compound `CC1(C)Oc2ccc(Nc3nc(Nc4ccc5[nH]c(CN6CCOCC6)nc5c4)ncc3F)cc2NC1=O` [Compound 961, N4-(2,2-Dimethyl-3-oxo-4H-benz[1,4]oxazin-6-yl)-5-fluoro-N2-[2-(4-morpholinomethyl)-1H-benzimidazol-5-yl]-2,4-pyrimidinediamine], on Syk kinase (11pt), the IC50 was under 10 µM.

`CC1(C)Oc2ccc(Nc3nc(Nc4ccc5[nH]c(CN6CCOCC6)nc5c4)ncc3F)nc2NC1=O` [Compound 962, N4-(2,2-Dimethyl-3-oxo-4H-5-pyrido[1,4]oxazin-6-yl)-5-fluoro-N2-[2-(4-morpholinomethyl)-1H-benzimidazol-5-yl]-2,4-pyrimidinediamine]: the IC50 on Syk kinase (11pt) is under 10 µM.

Turning to `CC1(C)Oc2ccc(Nc3nc(Nc4ccc5[nH]c(N6CCOCC6)nc5c4)ncc3F)cc2NC1=O` [Compound 976, N4-(2,2-Dimethyl-3-oxo-4H-benz[1,4]oxazin-6-yl)-5-fluoro-N2-[2-(4-morpholino)-1H-benzimidazol-5-yl]-2,4-pyrimidinediamine], on Syk kinase (11pt), the IC50 was under 10 µM.

Take `CC1(C)Oc2ccc(Nc3nc(Nc4ccc5[nH]c(N6CCOCC6)nc5c4)ncc3F)nc2NC1=O` [Compound 977, N4-(2,2-Dimethyl-3-oxo-4H-5-pyrido[1,4]oxazin-6-yl)-5-fluoro-N2-[2-(4-morpholino)-1H-benzimidazol-5-yl]-2,4-pyrimidinediamine]: the IC50 at Syk kinase (11pt) is under 10 µM.

As to `COc1c(C)cc(Nc2ncc(F)c(Nc3ccc4c(c3)NC(=O)C(C)(C)O4)n2)cc1Cl` [Compound 994], in series [1] (C57BL/6, mouse, plasma, 100 mg/kg oral, 90 minutes pretreatment, read-out: Exposure = Pretreatment Time + 4 hours Plasma Concentration ± SEM), the concentration at 5.5 h worked out at 44.2 ± 8.9 ng/mL. In series [1] (C57BL/6, mouse, plasma, 100 mg/kg oral, 90 minutes pretreatment, read-out: Satellite: At time of challenge Plasma Concentration ± SEM), the concentration at 90 min was found to be 78.6 ± 26.4 ng/mL. At Syk kinase (11pt), the IC50 was under 10 µM.

As for `COc1c(C)cc(Nc2ncc(F)c(Nc3ccc4c(n3)NC(=O)C(C)(C)O4)n2)cc1C` [Compound 997, N2-(3,5-Dimethyl-4-methoxyphenyl)-N4-(2,2-dimethyl-3-oxo-4H-5-pyrid[1,4]oxazin-6-yl)-5-fluoro-2,4-pyrimidinediamine], the IC50 on Syk kinase (11pt) is under 10 µM.

For the compound `COc1cc(Nc2ncc(F)c(Nc3ccc4c(n3)NC(=O)C(C)(C)O4)n2)cc(OC)c1OC` [Compound 1007, N4-(2,2-Dimethyl-3-oxo-4H-5-pyrid[1,4]oxazin-6-yl)-5-fluoro-N2-(3,4,5-trimethoxyphenyl)-2,4-pyrimidinediamine], the “Exposure = Pretreatment Time + 4 hours Plasma Concentration ± SEM” value in series [1] (0.1 mg/kg oral) and in series [1] (0.5 mg/kg oral) was “BLQ” throughout. Besides, the concentration at 4.5 h in series [1] (C57BL/6, mouse, plasma, 1 mg/kg oral, read-out: Exposure = Pretreatment Time + 4 hours Plasma Concentration ± SEM) amounted to 2.3 ± 0.9 ng/mL; in series [1] (setting [4]) it was 19.8 ± 15.7 ng/mL.

For the compound `CCOc1c(C)cc(Nc2ncc(F)c(Nc3ccc4c(c3)NC(=O)C(C)(C)O4)n2)cc1Cl` [Compound 1008], the IC50 on Syk kinase (11pt) is under 10 µM.

As to `CC1(C)Oc2ccc(Nc3nc(Nc4ccc(-c5ncco5)cc4)ncc3F)cc2NC1=O` [Compound 1011], the IC50 at Syk kinase (11pt) was under 10 µM.

On to `CC1(C)Oc2ccc(Nc3nc(Nc4cccc(-c5cnco5)c4)ncc3F)cc2NC1=O` [Compound 1016], for which the IC50 on Syk kinase (11-point) is under 10 µM.

Turning to `O=C1COc2ccc(Nc3ncc(F)c(Nc4ccc5c(c4)NC(=O)CO5)n3)cc2N1` [Compound 1083], the IC50 on Syk kinase (11-point) is under 10 µM.

On to `COc1cc(Nc2ncc(F)c(Nc3ccc4c(n3)NCCO4)n2)cc(OC)c1OC` [Compound 1145, N4-(3,4-Dihydro-2H,4H-5-pyrid[1,4]oxazin-6-yl)-5-fluoro-N2-(3,4,5-trimethoxyphenyl)-2,4-pyrimidinediamine], for which the IC50 on Syk kinase (4 uM ATP, 11pt) is under 10 µM.

Consider `COC(=O)CNC(=O)c1ccc(Nc2ncc(F)c(Nc3ccc4c(c3)NC(=O)C(C)(C)O4)n2)cc1` [Compound 1286], for which the IC50 was under 10 µM in series [2] (3pt, read-out: LD Tryptase, CHMC, IgE, 3pt); under 10 µM in series [2] (8pt, read-out: LD Tryptase, CHMC, IgE, 8pt); over 10 µM in series [3]; under 10 µM at Syk kinase (4 uM ATP, 11pt).

Consider `COC(=O)CCNC(=O)c1ccc(Nc2ncc(F)c(Nc3ccc4c(n3)NC(=O)C(C)(C)O4)n2)cc1` [Compound 1312, N4-(2,2-Dimethyl-3-oxo-4H-5-pyrid[1,4]oxazin-6-yl)-5-fluoro-N2-[4-[N-(2-methoxycarbonylethyl)aminocarbonyl]phenyl]-2,4-pyrimidinediamine], for which the IC50 on Syk kinase (4 uM ATP, 11pt) is under 10 µM.
